{"source": "paper PMC8213057", "about": "“Targeting ALK2: An Open Science Approach to Developing Therapeutics for the Treatment of Diffuse Intrinsic Pontine Glioma” (Journal of Medicinal Chemistry, 2020)", "key": {"CDK5/p35": {"molecular_target": "CDK5/p35 (Homo sapiens, UniProt Q00535)", "sequence (Q00535 whole entry)": "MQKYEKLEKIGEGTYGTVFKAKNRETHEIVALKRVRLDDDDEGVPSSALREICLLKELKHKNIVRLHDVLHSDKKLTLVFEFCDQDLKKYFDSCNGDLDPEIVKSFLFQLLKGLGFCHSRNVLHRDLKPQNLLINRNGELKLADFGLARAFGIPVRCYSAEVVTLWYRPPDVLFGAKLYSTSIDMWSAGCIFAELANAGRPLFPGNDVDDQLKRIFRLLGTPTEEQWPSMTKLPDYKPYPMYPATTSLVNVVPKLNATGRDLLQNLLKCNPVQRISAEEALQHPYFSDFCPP", "sequence (Q15078 whole entry partner)": "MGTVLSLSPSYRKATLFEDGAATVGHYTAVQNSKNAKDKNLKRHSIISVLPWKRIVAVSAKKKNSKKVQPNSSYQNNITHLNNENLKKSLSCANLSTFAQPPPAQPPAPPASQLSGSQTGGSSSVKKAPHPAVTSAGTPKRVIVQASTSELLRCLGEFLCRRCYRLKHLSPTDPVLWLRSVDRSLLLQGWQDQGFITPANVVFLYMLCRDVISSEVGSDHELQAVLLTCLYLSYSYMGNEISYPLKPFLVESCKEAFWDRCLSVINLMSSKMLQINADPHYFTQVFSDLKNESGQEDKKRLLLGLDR", "settings": "1 μM; Run 1, Run 2"}, "CK1a1L": {"molecular_target": "T1, CK1a1L (Homo sapiens, UniProt Q8N752)", "T1 sequence (Q8N752 1-337)": "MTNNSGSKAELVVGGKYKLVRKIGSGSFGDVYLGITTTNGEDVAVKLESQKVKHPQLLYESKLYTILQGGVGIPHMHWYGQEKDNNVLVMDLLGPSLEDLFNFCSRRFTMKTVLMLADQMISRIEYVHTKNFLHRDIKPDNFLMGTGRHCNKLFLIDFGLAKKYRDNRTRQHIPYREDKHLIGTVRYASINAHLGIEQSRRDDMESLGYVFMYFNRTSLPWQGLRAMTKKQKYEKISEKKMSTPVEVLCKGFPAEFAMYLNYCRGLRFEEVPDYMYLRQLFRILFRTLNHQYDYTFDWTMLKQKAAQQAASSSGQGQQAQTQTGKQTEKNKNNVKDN", "settings": "1 μM; Run 1, Run 2"}, "MST4": {"molecular_target": "MST4 (Homo sapiens, UniProt Q9P289)", "sequence (Q9P289 whole entry)": "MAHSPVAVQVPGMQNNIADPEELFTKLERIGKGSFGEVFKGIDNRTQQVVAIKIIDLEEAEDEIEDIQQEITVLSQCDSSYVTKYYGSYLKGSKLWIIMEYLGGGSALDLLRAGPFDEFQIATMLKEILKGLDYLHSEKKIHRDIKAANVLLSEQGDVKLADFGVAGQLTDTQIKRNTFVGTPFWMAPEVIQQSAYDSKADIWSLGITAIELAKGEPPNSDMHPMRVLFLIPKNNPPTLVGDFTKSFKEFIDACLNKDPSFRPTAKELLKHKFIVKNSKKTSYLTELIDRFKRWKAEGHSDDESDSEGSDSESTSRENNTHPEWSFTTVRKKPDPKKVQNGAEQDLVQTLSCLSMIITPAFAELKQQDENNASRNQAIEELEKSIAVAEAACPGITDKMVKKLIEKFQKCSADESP", "settings": "1 μM; Run 1, Run 2"}, "PAK4": {"molecular_target": "PAK4 (Homo sapiens, UniProt O96013)", "settings": "1 μM; Run 1, Run 2"}, "TESK1": {"molecular_target": "TESK1 (Homo sapiens, UniProt Q15569)", "sequence (Q15569 whole entry)": "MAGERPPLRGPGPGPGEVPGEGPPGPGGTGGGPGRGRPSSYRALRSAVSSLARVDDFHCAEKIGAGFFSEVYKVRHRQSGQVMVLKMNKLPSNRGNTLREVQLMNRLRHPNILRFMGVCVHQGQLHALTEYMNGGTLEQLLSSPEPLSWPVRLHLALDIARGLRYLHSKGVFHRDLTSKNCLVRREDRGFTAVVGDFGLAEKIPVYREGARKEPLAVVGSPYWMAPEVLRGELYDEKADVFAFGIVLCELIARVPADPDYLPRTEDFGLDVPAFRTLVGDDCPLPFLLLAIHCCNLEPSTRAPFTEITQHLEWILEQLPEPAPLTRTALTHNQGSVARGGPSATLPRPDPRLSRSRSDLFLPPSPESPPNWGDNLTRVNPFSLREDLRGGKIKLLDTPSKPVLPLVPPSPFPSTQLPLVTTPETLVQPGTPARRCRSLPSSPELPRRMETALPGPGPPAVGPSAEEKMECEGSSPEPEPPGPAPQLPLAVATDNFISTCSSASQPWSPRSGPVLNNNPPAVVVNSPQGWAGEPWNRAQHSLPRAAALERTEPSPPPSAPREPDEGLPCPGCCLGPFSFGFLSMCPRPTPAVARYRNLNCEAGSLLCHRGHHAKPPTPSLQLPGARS", "settings": "1 μM; Run 1, Run 2"}, "DCAMKL2": {"molecular_target": "T2, DCAMKL2 (Homo sapiens, UniProt Q8N568)", "T2 sequence (Q8N568 1-766)": "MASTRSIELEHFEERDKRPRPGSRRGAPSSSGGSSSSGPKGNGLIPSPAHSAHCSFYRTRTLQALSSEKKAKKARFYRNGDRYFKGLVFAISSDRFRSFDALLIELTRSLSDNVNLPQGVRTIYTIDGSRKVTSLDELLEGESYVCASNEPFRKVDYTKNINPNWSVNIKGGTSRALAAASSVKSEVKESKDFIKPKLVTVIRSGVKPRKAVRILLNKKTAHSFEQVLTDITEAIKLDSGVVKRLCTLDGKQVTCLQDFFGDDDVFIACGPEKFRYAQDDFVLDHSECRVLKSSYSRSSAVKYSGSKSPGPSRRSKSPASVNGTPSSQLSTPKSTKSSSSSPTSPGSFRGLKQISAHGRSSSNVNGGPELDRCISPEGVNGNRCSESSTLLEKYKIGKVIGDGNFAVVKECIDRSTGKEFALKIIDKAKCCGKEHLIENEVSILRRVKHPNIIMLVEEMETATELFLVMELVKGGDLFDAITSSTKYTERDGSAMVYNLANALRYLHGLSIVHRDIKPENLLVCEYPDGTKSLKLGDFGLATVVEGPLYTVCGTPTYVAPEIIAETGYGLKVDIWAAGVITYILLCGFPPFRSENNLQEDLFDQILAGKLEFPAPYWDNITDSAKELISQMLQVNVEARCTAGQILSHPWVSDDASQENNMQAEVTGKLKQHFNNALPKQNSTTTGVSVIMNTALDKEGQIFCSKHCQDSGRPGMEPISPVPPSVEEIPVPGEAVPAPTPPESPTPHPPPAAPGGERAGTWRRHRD", "assay": "biochemical", "settings": "read-out: % enzyme activity, 1 μM; Run 1, Run 2"}, "IR": {"molecular_target": "IR (Homo sapiens, UniProt P06213)", "sequence (P06213 28-1382)": "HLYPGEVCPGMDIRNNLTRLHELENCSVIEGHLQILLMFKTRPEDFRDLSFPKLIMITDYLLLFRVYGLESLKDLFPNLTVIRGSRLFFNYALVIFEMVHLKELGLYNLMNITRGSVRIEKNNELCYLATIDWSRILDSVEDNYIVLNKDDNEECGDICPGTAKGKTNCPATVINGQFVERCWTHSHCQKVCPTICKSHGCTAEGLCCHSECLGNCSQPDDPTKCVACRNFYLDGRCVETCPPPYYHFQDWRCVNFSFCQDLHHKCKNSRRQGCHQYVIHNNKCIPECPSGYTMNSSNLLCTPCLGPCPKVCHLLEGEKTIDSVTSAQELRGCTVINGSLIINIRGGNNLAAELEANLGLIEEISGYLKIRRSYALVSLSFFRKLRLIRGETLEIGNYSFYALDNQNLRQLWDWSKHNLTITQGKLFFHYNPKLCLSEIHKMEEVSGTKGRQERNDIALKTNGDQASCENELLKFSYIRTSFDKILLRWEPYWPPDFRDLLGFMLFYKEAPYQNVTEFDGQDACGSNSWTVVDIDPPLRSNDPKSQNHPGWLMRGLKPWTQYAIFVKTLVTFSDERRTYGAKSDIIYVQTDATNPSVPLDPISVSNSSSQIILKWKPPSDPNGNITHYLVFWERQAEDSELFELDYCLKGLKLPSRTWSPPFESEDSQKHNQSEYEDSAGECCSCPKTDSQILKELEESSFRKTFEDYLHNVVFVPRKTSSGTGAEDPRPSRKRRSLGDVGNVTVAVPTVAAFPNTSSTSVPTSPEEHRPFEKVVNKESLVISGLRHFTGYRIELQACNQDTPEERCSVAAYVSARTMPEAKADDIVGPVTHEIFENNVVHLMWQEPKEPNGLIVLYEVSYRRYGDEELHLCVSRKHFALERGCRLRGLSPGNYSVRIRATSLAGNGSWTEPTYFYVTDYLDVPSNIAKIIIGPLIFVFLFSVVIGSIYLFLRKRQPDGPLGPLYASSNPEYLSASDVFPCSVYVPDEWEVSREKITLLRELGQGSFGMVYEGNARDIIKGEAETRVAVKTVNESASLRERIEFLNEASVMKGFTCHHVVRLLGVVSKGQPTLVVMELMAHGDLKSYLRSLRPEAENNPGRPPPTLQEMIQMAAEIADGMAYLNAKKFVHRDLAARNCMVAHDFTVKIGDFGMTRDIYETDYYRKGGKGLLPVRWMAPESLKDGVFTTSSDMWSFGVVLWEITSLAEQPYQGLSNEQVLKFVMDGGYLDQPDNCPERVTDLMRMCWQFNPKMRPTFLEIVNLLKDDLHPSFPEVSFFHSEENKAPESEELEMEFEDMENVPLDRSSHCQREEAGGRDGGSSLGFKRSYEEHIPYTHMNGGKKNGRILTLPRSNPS", "assay": "biochemical", "settings": "read-out: % enzyme activity, 1 μM; Run 1, Run 2"}, "MLCK/MYLK": {"molecular_target": "MLCK/MYLK (Homo sapiens, UniProt Q15746)", "sequence (Q15746 whole entry)": "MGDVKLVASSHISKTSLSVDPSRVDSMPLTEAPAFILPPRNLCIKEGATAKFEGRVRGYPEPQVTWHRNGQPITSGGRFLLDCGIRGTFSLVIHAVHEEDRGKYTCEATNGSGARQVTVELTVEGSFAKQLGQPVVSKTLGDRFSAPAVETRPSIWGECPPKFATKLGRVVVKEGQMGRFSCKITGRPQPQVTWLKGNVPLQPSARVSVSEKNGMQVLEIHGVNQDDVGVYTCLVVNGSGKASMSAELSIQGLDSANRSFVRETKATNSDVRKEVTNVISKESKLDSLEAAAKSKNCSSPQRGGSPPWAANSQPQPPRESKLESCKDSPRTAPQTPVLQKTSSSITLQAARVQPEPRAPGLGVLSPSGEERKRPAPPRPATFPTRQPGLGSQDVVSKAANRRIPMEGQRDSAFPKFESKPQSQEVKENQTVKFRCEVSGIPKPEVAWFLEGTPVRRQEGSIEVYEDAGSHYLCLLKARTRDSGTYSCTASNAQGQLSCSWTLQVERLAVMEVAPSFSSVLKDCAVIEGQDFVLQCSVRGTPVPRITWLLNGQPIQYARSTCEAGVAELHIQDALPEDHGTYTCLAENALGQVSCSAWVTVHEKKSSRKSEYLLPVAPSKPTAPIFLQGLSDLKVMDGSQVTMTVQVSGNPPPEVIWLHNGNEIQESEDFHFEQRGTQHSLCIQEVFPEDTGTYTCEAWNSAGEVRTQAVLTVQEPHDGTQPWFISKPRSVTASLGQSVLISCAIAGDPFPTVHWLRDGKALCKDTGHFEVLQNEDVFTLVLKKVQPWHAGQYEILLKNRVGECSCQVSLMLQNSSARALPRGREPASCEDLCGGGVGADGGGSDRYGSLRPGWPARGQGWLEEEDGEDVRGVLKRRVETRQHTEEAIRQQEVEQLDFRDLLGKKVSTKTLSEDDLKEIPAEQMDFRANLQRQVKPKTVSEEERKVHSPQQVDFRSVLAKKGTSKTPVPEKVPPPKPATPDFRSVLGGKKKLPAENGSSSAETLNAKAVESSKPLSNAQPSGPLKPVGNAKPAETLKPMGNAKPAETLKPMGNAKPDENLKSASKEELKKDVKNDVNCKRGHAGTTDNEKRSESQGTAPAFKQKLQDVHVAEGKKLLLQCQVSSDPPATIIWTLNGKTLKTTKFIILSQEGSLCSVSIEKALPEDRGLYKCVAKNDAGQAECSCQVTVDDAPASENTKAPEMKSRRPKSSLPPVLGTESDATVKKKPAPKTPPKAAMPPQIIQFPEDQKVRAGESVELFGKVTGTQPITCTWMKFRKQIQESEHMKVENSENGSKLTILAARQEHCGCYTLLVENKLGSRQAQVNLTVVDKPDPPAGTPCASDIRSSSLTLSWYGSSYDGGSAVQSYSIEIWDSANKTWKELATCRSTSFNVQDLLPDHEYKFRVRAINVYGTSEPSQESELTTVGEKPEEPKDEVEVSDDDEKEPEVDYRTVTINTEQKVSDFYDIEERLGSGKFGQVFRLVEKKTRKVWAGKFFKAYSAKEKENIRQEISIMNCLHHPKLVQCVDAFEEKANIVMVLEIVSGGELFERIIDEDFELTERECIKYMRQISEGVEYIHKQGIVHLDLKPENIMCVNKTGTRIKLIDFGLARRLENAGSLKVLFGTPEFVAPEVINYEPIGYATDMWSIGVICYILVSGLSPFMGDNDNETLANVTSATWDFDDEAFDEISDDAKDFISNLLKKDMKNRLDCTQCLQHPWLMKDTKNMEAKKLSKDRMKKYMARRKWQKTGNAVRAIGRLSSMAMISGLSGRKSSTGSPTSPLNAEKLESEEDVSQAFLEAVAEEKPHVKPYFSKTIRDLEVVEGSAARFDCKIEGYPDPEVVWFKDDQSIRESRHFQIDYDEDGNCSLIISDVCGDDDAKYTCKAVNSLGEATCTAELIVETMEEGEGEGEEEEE", "assay": "biochemical", "settings": "read-out: % enzyme activity, 1 μM; Run 1, Run 2"}, "TEC": {"molecular_target": "T3, TEC (Homo sapiens, UniProt P42680)", "T3 sequence (P42680 1-631)": "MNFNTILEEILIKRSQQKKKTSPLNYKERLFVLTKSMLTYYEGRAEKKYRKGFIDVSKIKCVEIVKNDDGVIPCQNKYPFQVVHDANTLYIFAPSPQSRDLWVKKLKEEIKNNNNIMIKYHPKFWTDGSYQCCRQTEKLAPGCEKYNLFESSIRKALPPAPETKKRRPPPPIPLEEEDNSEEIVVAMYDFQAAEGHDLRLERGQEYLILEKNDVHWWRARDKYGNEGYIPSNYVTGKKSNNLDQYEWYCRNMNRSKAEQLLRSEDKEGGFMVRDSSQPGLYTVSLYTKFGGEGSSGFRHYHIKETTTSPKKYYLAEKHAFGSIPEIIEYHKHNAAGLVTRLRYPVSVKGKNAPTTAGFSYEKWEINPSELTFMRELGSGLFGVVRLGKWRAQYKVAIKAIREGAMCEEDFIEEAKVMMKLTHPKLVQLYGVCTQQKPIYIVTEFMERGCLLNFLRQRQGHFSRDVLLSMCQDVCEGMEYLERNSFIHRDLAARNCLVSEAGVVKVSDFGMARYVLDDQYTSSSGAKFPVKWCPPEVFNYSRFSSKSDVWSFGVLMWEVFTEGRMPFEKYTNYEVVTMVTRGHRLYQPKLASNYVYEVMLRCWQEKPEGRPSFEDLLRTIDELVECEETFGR", "assay": "biochemical", "settings": "read-out: % enzyme activity, 1 μM; Run 1, Run 2"}}, "note": "Values joined by “and” are separate entries in the source; they are usually repeats but may differ in a detail not shown here. Identical values can stand only once.", "data": [{"smiles": "COc1cc(-c2cncc(-c3ccc(N4CCN(C)CC4)cc3)c2C)cc(F)c1C(N)=O", "note": "[Compound 26a, 2-Fluoro-6-methoxy-4-(4-methyl-5-(4-(4-methylpiperazin-1-yl)phenyl)pyridin-3-yl)benzamide]", "values": [{"measurement": "% enzyme activity at 1 μM", "setting": "KHS/MAP4K5", "result": "39.7% and 39.3%"}, {"measurement": "% enzyme activity", "setting": "CDK5/p35", "result": 95.26, "unit": "%"}, {"measurement": "% enzyme activity", "setting": "CK1a1L", "result": 97.55, "unit": "%"}, {"measurement": "% enzyme activity", "setting": "MST4", "result": 85.32, "unit": "%"}, {"measurement": "% enzyme activity", "setting": "PAK4", "result": 98.21, "unit": "%"}, {"measurement": "% enzyme activity", "setting": "TESK1", "result": 108.88, "unit": "%"}, {"measurement": "remaining activity at 1 µM", "setting": "DCAMKL2", "result": 64.4, "unit": "%"}, {"measurement": "remaining activity at 1 µM", "setting": "IR", "result": 102, "unit": "%"}, {"measurement": "remaining activity at 1 µM", "setting": "MLCK/MYLK", "result": 106, "unit": "%"}, {"measurement": "remaining activity at 1 µM", "setting": "TEC", "result": 108, "unit": "%"}]}, {"smiles": "COc1cc(-c2cncc(-c3ccc(N4C[C@@H](C)N(C)[C@@H](C)C4)cc3)c2C)cc(F)c1C(N)=O", "note": "[Compound 26c, 2-Fluoro-6-methoxy-4-(4-methyl-5-(4-((3R,5S)-3,4,5-trimethylpiperazin-1-yl)phenyl)pyridin-3-yl)benzamide]", "values": [{"measurement": "% enzyme activity at 1 μM", "setting": "KHS/MAP4K5", "result": "41.7% and 40.6%"}, {"measurement": "% enzyme activity", "setting": "CDK5/p35", "result": 96.90, "unit": "%"}, {"measurement": "% enzyme activity", "setting": "CK1a1L", "result": 99.15, "unit": "%"}, {"measurement": "% enzyme activity", "setting": "MST4", "result": 90.97, "unit": "%"}, {"measurement": "% enzyme activity", "setting": "PAK4", "result": 98.82, "unit": "%"}, {"measurement": "% enzyme activity", "setting": "TESK1", "result": 105.23, "unit": "%"}, {"measurement": "remaining activity at 1 µM", "setting": "DCAMKL2", "result": 84.5, "unit": "%"}, {"measurement": "remaining activity at 1 µM", "setting": "IR", "result": 100, "unit": "%"}, {"measurement": "remaining activity at 1 µM", "setting": "MLCK/MYLK", "result": 103, "unit": "%"}, {"measurement": "remaining activity at 1 µM", "setting": "TEC", "result": 106, "unit": "%"}]}]}
